Results published in PubChem BioAssay (NCI).
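How tested: cells in 96-well plates exposed to compound for 48 hours at five concentrations. TGI: total growth inhibition.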

What was measured:
Assay in all cases: inhibition of tumour cell growth, NCI panel, 48 h
[1] = tested on: RPMI-8226 leukemia
[2] = tested on: A549 NSCLC
[3] = tested on: HL-60(TB) leukemia
[4] = tested on: SR leukemia
[5] = tested on: NCI-H460 lung
[6] = tested on: ACHN renal
[7] = tested on: SF-268 CNS
[8] = tested on: CAKI-1 renal
[9] = tested on: MDA-MB-231 breast
[10] = tested on: MCF7 breast
[11] = tested on: SNB-75 CNS
[12] = tested on: OVCAR-3 ovarian
[13] = tested on: SF-295 CNS
[14] = tested on: SN12C renal

SMILES | TGI [1] | TGI [2] | TGI [3] | TGI [4] | TGI [5] | TGI [6] | TGI [7] | TGI [8] | TGI [9] | TGI [10] | TGI [11] | TGI [12] | TGI [13] | TGI [14]
COc1ccc(/C(Br)=C2\OC(=O)c3ccccc32)cc1 | > 10 µM | > 10 µM | > 10 µM | > 10 µM | > 10 µM | > 10 µM | > 10 µM | > 10 µM | > 10 µM | > 10 µM | > 10 µM | > 10 µM | > 10 µM | > 10 µM
Cc1cc(N(CCC#N)CCC#N)ccc1/C(N=Nc1cccc(Cl)c1)=N/NC(=O)c1cc(Cl)ccc1O | 63.5 µM | 75.7 µM | 9.06 µM | > 100 µM | 31.9 µM | 42 µM | 75.2 µM | 44.8 µM | 49 µM | > 100 µM | 42.1 µM | 16.5 µM | > 100 µM | 61.3 µM
CCOP1(=O)CC(C)=C(Cl)C(O)C1 (configuration not stated) | > 100 µM | > 100 µM | > 100 µM | > 100 µM | > 100 µM | > 100 µM | > 100 µM | > 100 µM | > 100 µM | > 100 µM | > 100 µM | > 100 µM | > 100 µM | > 100 µM
COc1ccc(OC)c(CNc2ccc(C(=O)O)cc2)c1 | > 100 µM | > 100 µM | > 100 µM | > 100 µM |  | > 100 µM | > 100 µM | > 100 µM | > 100 µM | > 100 µM | > 100 µM | > 100 µM |  | 
O=C1CSC2(CC(/C=C/c3cccc([N+](=O)[O-])c3)=NN2c2cccc(S(=O)(=O)O)c2)N1c1nc2ccccc2s1 (configuration not stated) | 39.2 µM | 69.2 µM | 92.5 µM | 48.3 µM | 63.2 µM | 94.6 µM | > 100 µM | > 100 µM | 43.5 µM | 37.2 µM | 40.7 µM |  |  | 49.9 µM
[N-]=[N+]=NI1OC(=O)c2ccccc21 | 65.7 µM | > 100 µM | 84 µM | > 100 µM |  | > 100 µM | > 100 µM | 46.9 µM | > 100 µM | > 100 µM | > 100 µM | > 100 µM | > 100 µM | > 100 µM
CCc1c(C)c(C#N)c(=S)n(C2OC(COC(C)=O)C(OC(C)=O)C(OC(C)=O)C2OC(C)=O)c1-c1ccccc1 (configuration not stated) | > 100 µM | > 31.6 µM | > 100 µM | > 31.6 µM | > 31.6 µM | > 31.6 µM | > 31.6 µM | > 100 µM | > 31.6 µM | > 31.6 µM |  | > 31.6 µM | 27 µM | > 31.6 µM
CC1(C)OCC([C@H]2O[C@@H](CC(=S)NCCCCCCCCCCCCNC(=S)C[C@H]3O[C@@H](C4COC(C)(C)O4)[C@H]4OC(C)(C)O[C@H]43)[C@H]3OC(C)(C)O[C@H]32)O1 (some centres not stated) | 68.8 µM | > 100 µM | > 100 µM | > 100 µM | > 100 µM | > 100 µM | > 100 µM | > 100 µM | > 100 µM | > 100 µM | > 100 µM | > 100 µM | > 100 µM | 
COC(=O)c1c(C)n([O-])c2cc(Cl)c(Cl)cc2[n+]1=O | 19.3 µM | 28.6 µM | 50.2 µM | > 100 µM | 29.2 µM | 62.8 µM | > 100 µM | 61 µM | 67.2 µM | > 100 µM |  | 52.4 µM | > 100 µM | 84 µM
CC(=O)C1=CN=C2C(=O)N(c3ccccc3)N(C)C12C (configuration not stated) | > 100 µM | > 100 µM | > 100 µM | > 100 µM |  | > 100 µM |  | > 100 µM | > 100 µM | > 100 µM | > 100 µM | > 100 µM | > 100 µM | > 100 µM
COc1ccc(OC)c(N(CN2C(=O)CCC2C(=O)O)C(C)=O)c1 (configuration not stated) | > 100 µM | > 100 µM | > 100 µM | > 100 µM |  | > 100 µM | > 100 µM | > 100 µM | > 100 µM | > 100 µM | > 100 µM | > 100 µM | > 100 µM | > 100 µM
CCOC(=O)NNC(=O)NCc1cccc(CNC(=O)NNC(=O)OCC)c1 | > 100 µM | > 100 µM | > 100 µM | > 100 µM | > 100 µM |  | > 100 µM | > 100 µM | > 100 µM | > 100 µM | > 100 µM | > 100 µM |  | > 100 µM
C[C@]12C[C@@H](OC(=O)[C@]1(C)O)[C@@H]([C@]1(O)CC[C@H]3[C@@H]4C[C@H]5O[C@]56C[C@H]5O[C@H]5C(=O)[C@]6(C)[C@H]4CC[C@@]31C)C2 | > 50 µM | > 50 µM | > 50 µM | > 50 µM | > 50 µM | > 50 µM | > 50 µM | > 50 µM | > 50 µM | > 50 µM | > 50 µM |  | > 50 µM | > 50 µM
